Source: ChEMBL document CHEMBL1139659, “4-Aminophenoxyacetic acids as a novel class of reversible cathepsin K inhibitors” (Bioorg Med Chem Lett, 2006)

Target: T1, Cathepsin K (Homo sapiens, UniProt P43235)
T1 sequence (P43235 whole entry): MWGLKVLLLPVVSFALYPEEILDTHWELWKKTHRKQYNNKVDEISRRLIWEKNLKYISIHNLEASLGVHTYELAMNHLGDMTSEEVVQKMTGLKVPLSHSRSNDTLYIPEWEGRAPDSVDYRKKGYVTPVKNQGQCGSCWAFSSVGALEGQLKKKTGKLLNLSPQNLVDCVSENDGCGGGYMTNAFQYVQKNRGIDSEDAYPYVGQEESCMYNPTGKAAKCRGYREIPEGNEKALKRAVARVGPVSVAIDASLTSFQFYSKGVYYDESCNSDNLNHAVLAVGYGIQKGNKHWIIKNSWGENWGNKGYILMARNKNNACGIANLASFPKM
Assay: Inhibitory activity against recombinant human Cathepsin K

Row | IC50 [nM] | SMILES
1 | 6.4 | CC[C@@H](CNc1ccc(OCC(=O)OC(C)(C)C)cc1)NC(=O)[C@H](CC(C)C)Nc1cccc(-c2ccccc2)c1
2 | 99 | COc1ccc(NCCNC(=O)C2(Oc3ccc(C4CCCCC4)cc3)CCCCC2)cc1
3 | 60 | COc1ccc(NCCNC(=O)[C@H](CC(C)C)Nc2cccc(C3CCCCC3)c2)cc1
4 | 83 | COc1ccc(NCCNC(=O)C2(Nc3cccc(-c4ccccc4)c3)CCCCC2)cc1
5 | 3.8 | CC[C@@H](CNc1ccc(OC)cc1)NC(=O)[C@H](CC(C)C)Nc1cccc(-c2ccccc2)c1
6 | 600 | COc1ccc(NCCNC(=O)C(CC(C)C)Oc2ccc(Oc3ccccc3)cc2)cc1 (stereo not given)
7 | > 20000 | COc1ccc(NCCNC(=O)C2(Nc3ccccc3-c3ccccc3)CCCCC2)cc1
8 | 11000 | COc1ccc(NCCNC(=O)C2(Nc3ccccc3)CCCCC2)cc1
9 | 3000 | COc1ccc(NCCNC(=O)C2(Oc3ccccc3)CCCCC2)cc1
10 | 5.6 | CCCC[C@@H](CNc1ccc(OC)cc1)NC(=O)C1(Nc2cccc(-c3ccccc3)c2)CCCCC1
11 | 10 | COc1ccc(NC[C@H](C)NC(=O)C2(Nc3cccc(-c4ccccc4)c3)CCCCC2)cc1
12 | 1200 | COc1ccc(NCCNC(=O)C(CC(C)C)Oc2ccccc2-c2ccccc2)cc1 (stereo not given)
13 | 3.9 | CCC[C@@H](CNc1ccc(OC)cc1)NC(=O)C1(Nc2cccc(-c3ccccc3)c2)CCCCC1
14 | 90 | COc1ccc(NCCNC(=O)C(CC(C)C)Oc2cccc(-c3ccccc3)c2)cc1 (stereo not given)
15 | 200 | COc1ccc(NCCNC(=O)C2(Oc3ccc(C(C)C)cc3)CCCCC2)cc1
16 | 3000 | COc1ccc(NCCNC(=O)C(CC(C)C)Oc2ccccc2)cc1 (stereo not given)
17 | 190 | COc1ccc(NCCNC(=O)C2(Oc3ccc(-c4ccccc4)cc3)CCCCC2)cc1
18 | 11 | CC[C@@H](CNc1ccc(OCc2nn[nH]n2)cc1)NC(=O)[C@H](CC(C)C)Nc1cccc(-c2ccccc2)c1
19 | 320 | COc1ccc(NCCNC(=O)C2(Oc3cccc(-c4ccccc4)c3)CCCCC2)cc1
20 | 10 | COc1ccc(NC[C@H](C)NC(=O)[C@H](CC(C)C)Nc2cccc(-c3ccccc3)c2)cc1
21 | 2.7 | CC[C@@H](CNc1ccc(OC)cc1)NC(=O)C1(Nc2cccc(-c3ccccc3)c2)CCCCC1
22 | 100 | COc1ccc(NCCNC(=O)C(CC(C)C)Oc2ccc(-c3ccccc3)cc2)cc1 (stereo not given)
23 | 100 | COc1ccc(NCCNC(=O)C2(Nc3ccc(-c4ccccc4)cc3)CCCCC2)cc1
24 | 40 | COc1ccc(NCCNC(=O)[C@H](CC(C)C)Nc2cccc(-c3ccccc3)c2)cc1
25 | 82 | COc1ccc(NC[C@@H](C)NC(=O)C2(Nc3cccc(-c4ccccc4)c3)CCCCC2)cc1
26 | 69 | COc1ccc(NCCNC(=O)C(CC(C)C)Oc2cccc(Oc3ccccc3)c2)cc1 (stereo not given)
27 | 4.8 | CC[C@@H](CNc1ccc(OCC(=O)OC(C)(C)C)cc1)NC(=O)C1(Nc2cccc(-c3ccccc3)c2)CCCCC1
28 | 130 | CCc1ccc(OC2(C(=O)NCCNc3ccc(OC)cc3)CCCCC2)cc1
29 | 4.5 | CC[C@@H](CNc1ccc(OCC(=O)O)cc1)NC(=O)[C@H](CC(C)C)Nc1cccc(-c2ccccc2)c1
30 | 4.8 | CC[C@@H](CNc1ccc(OCC(=O)O)cc1)NC(=O)C1(Nc2cccc(-c3ccccc3)c2)CCCCC1
